Test [1] relates to db/db, obese-diabetic mice. The test can be described thus: Intravenous administration of IG1, db/db mice. The class given is in vivo. As for the experimental part: (§1) Male C57BL/6 mice were housed individually and given free access to a standard diet (65% carbohydrate, 4% fat, and 24% protein) or a high-fat diet (Quick Fat; 60.2% carbohydrate, 15.3% fat, and 24.5% protein; Clea Japan, Tokyo, Japan), starting at 5 weeks of age, for 5 weeks. Db/db mice also were housed individually and given free access to a standard diet. C57BL/6 mice at 5 weeks of age, were received a single dose of 75 μg/g body weight streptozotoxin (STZ). 7 days after injections, the mice, whose fasting plasma glucose concentrations were over 400 mg/dl, were used as STZ-diabetic mice. […]
(§2) Frozen livers were homogenized, and triglycerides were extracted with CHCl3:CH3OH (2:1, vol:vol), dried and resuspended in 2-propanol (17). Triglyceride contents were measured using Lipidos liquid (TOYOBO, Osaka, Japan). […] Glycogen content was determined by the phenol-sulfuric acid spectrophotometric method at 490 nm (18) and expressed as micrograms of glycogen per milligram of liver.
(§3) Blood glucose was assayed with Glucose Ace (Sanwa Kagaku Kenkyusho, Nagoya, Japan). Serum insulin and leptin were determined with ELISA kits (Morinaga Institute of Biological Science, Yokohama, Japan). Serum adiponectin and tumor necrosis factor-α (TNF-α) concentrations were measured with an ELISA kit (Ohtsuka Pharmaceutical, Tokyo, Japan) and a TNF-α assay kit (Amersham Biosciences, Uppsala, Sweden), respectively. […]

The test system of test [2] is native rat adipocytes. The test can be described thus: Lipogenesis in native rat adipocytes. The following applies: rat isolated adipocytes. The test is classed as cell-based. Here is the method: Adipocytes were isolated from epididymal fat pads dissected from freshly sacrificed male Long-Evans rats and incorporation of [6-^3H]-glucose into triglycerides in response to treatment with inositol glycans or insulin was measured as previously described (Chakraborty, N. and M. d'Alarcao, Bioorganic & Medicinal Chemistry 13 (2005) 6732-6741).

Test [3] deals with C57B/6 mice on normal diets. The test can be described thus: Intraperitoneal IG1 for 7 days, mice on normal diets. The following applies: intraperitoneal for every 7 days, data not shown. The class given is in vivo. Here is the method: as §1, §2, §3
The test system of test [4] is MKN45. The test can be described thus: Cell proliferation / cell death assay, MKN45. The test is classed as cell-based, human. The following applies: MKN45, 10-100 μM. As for the experimental part: (§4) Human pancreatic cancer cell lines (Panc-1, MiaPaca2, BXPC3, Aspc 1), human hepatoma cell line (HuH7), human gastric cancer cell lines (AGS, MKN45), human colon cancer cell line (CoCM-1), human mammary cancer cell line (MCF-7), human neuroblastoma (SH-SY5Y), human prostate cancer cells (PC3), and murine Ehrlich ascites cancer cells and mouse 3T3-L1 fibroblasts were obtained from American Type Culture Collection (Rockville, Md., USA). The cancer cells were cultured in RPMI 1640 containing 10% fetal calf serum. Cultures were maintained at 37° C. in a humidified atmosphere of 5% CO2.
(§5) Cell proliferation assays were performed with the CellTiter 96 AQueous One Solution Cell Proliferation Assay kit according to the manufacturer's instructions (Promega, Madison, Wis., USA). Briefly, 5×10^3 cells/well in medium were placed onto 96-well plates. IGs were added to cellular cultures at final concentrations of 0, 1, 10, and 100 μM. Cultures were incubated for 3 days or 7 days and then added to 20 μL/well of CellTiter 96 AQueous One Solution Reagent, which contains a tetrazolium compound, 3-(4,5-dimethylthiazol-2-yl)-5-(3-carboxymethoxyphenyl)-2-(4-sulfophenyl)-2H-tetrazolium, an inner salt; MTS was added to the culture medium. After incubating the plate for 1 h in a CO2 incubator, absorbance at 490 nm was recorded with a 96-well plate reader.

In test [5] the test system is C57B/6 mice on normal diets. The test can be described thus: Intravenous administration of IG1, mice on normal diets. The test is classed as in vivo. As for the experimental part:
as §1, §2, §3

The subject of test [6] is MiaPaca2. The test can be described thus: Cell proliferation / cell death assay, MiaPaca2. The class given is cell-based, human. The following applies: MiaPaca2, 10-100 μM. Here is the method:
as §4, §5

For test [7], the system named is 3T3-L1 adipocytes. The test can be described thus: Lipogenesis in 3T3-L1 adipocytes. The conditions noted are these: 10-1000 μM. The class given is cell-based, mouse. As for the experimental part: 3T3-L1 fibroblasts were maintained in Dulbecco's modified Eagle's medium (DMEM) with 25 mM glucose plus 10% fetal bovine serum (FBS). Following 2 days at confluence, differentiation was initiated by the addition of DMEM containing 10% FBS, 167 nM insulin, […] dexamethasone, and 0.5 mM isobutylmethylxanthine. Three days later, the medium was replaced with DMEM plus 10% FBS and 167 nM insulin. After 2 more days, the medium was switched to DMEM plus 10% fetal bovine serum. Adipocytes were used 6-14 days after completion of the differentiation protocol, when >90% of the cells expressed the adipocyte phenotype. Prior to experiments, cells were washed two times with DMEM medium containing 5 mM glucose, 0.2% bovine serum albumin, 25 mM Hepes (pH 7.4), 100 units/ml penicillin, 100 units/ml streptomycin and 0.29 mg/ml glutamine, and were incubated in the same medium for 2 h. Glycogen and lipid synthesis were measured in 24-well dishes. […] The lipids were then extracted overnight with 5 ml of Betafluor (National Diagnostics), and glucose incorporation into lipid was measured by scintillation counting. 400 μl of the cell suspension was added to 600 μl of 50% KOH, and glycogen was precipitated and radioactivity was counted by a liquid scintillation counter

The subject of test [8] is murine Ehrlich ascites cancer cells. The test can be described thus: Cell proliferation / cell death assay, Ehrlich ascites cancer cells. The test is classed as cell-based. The following applies: 10-100 μM. As for the experimental part: as §4, §5

By EC50 is commonly meant the concentration giving half of the maximal effect. On to `CCCCCCCCCCCCCCCC(=O)O[C@@H]1C(O)C(O)[C@H](O)C(O[C@H]2OC(CO)[C@@H](O)[C@H](O)C2N)C1O` (stereo in doubt) [IG1, 2-Amino-2-deoxy-α-D-glucopyranosyl-(1→6)-2-palmitoyl-D-myo-inositol], for which the “hepatic and muscular glycogen synthesis” value in test [1] (data not shown) is “increases hepatic and muscular glycogen synthesis”; in test [3], “increases hepatic and muscular glycogen synthesis”; in test [5] (mice on normal diets, data not shown), “increases hepatic and muscular glycogen synthesis”. Further, the plasma glucose concentrations entry in test [1] (intravenous) is recorded as “reduced plasma glucose concentrations”; in test [5] (intravenous, normal mice), “reduced plasma glucose concentrations”. Further, the EC50 in test [2] (Adipocyte, fit to receptor binding model, read-out: EC50 value for stimulation of lipogenesis) amounted to 14 µM. Further, the Emax in test [2] (Adipocyte, stimulation of lipogenesis, read-out: Amax (maximal effect)) is 24%. Further, the stimulation of lipogenesis entry in test [2] (concentration series) is recorded as “stimulated lipogenesis”. Further, the glucose tolerance result in test [3] is listed as “improves glucose tolerance”. Besides, the “rapid cancer cell death” value in test [4], in test [6] and in test [8] was “rapid cancer cell death was demonstrated” in each case. The lipogenesis result in test [7] is “stimulates”.

These data come from patent US20100197625A1, “SYNTHETIC LIPOPHILIC INOSITOL GLYCANS FOR TREATMENT OF CANCER AND GLUCOSE-METABOLISM DISORDERS” (priority 2006, published 2010).
